Results as given in patent publication US11911406B2, “PH-responsive polymer-drug conjugates for enhanced antibacterial efficacy” (priority 2020, dated 2024).
In brackets after ≈: the same amount, converted by molar mass.

Experiments:
[1] = tested on: human red blood cells; test: Hemolysis assay; assay type: cell-based
Description: Hemolysis assay. […] The antibacterial polymer and PDC with different charges were serial diluted with PBS and placed in 96-well plates (100 μL/well). The blood cell suspension (10 μL/well) was added into the wells and incubated at 37° C. for 1 h to allow the complete hemolysis process. […] Following centrifugation at 3000 rpm for 7 min, the supernatant (70 μL/well) was transferred to another clean 96-well plate. OD 560 in each well was monitored by a microplate reader, and hemolysis was calculated using the following formula: […]

[2] = tested on: broad spectrum of microbes; test: MIC, broth microdilution, across the strains tested; assay type: cell-based; details: E. coli, MRSA, P. aeruginosa (FIGS. 3G-I)
Description: (§1) Bacterial strains. S. aureus Newman was kindly provided by Prof Douglas Weibel; E. coli ATCC25922, S. aureus ATCC 33591 and P. aeruginosa ATCC 27853 were kindly donated by Prof. David Andes. E. coli DH5a was purchased from Thermo Fisher. The bacteria above were grown in Mueller Hinton Broth (MHB) media (Criterion, Santa Maria, Calif., USA). M. smegmatis mc^2155 strain was kindly donated by Prof. Adel M. Talaat, and was grown in Middlebrook 7H9 broth (HiMedia, West Chester, Pa., USA).
Minimal inhibitory concentration (MIC) measurements. The MIC of the different treatments on various bacteria strains was determined using the broth microdilution method. Briefly, 100 μL of the respective broth media containing serial twofold dilutions of each compound was placed into a 96-well tissue culture plate. Each bacterial strain was taken from an exponentially growing culture and diluted to 5×10^6 CFU/mL. 10 μL of such microbial suspension was inoculated in each well of the plate, resulting in a final bacteria concentration of approximately 5×10^5 CFU/mL. The bacteria were cultured at 37° C. for 24 h and their growth were observed by reading the optical density (OD) at 600 nm. The MIC was determined as the treatment concentration at which no microbial growth was observed. […]

[3] = tested on: HEK 293 human embryonic kidney cells; test: Cell viability test (MTT cytotoxicity); assay type: cell-based; details: 48 h, no pH given
Description: Cell viability test. Cytotoxicity of different components was tested through MTT assays. HEK 293 human embryonic kidney cells were seeded onto a 96-well plate (1×10^4 cells/well) and cultured overnight. The cells were then treated with various polymers or PDCs with serial dilutions for 48 h and their viability was measured by a standard MTT assay. Data were collected by monitoring the difference between the absorbance at 560 nm and 650 nm using a GloMax-Multi Microplate Multimode Reader (Promega, Wis., USA).

[4] = tested on: P. aeruginosa (ATCC 27853); test: MIC, broth microdilution; assay type: cell-based; details: 24 h, no pH given
Description: as §1
(§2) Minimal inhibitory concentration (MIC) measurements. The MIC of the different treatments on various bacteria strains was determined using the broth microdilution method. Briefly, 100 μL of the respective broth media containing serial twofold dilutions of each compound was placed into a 96-well tissue culture plate. Each bacterial strain was taken from an exponentially growing culture and diluted to 5×10^6 CFU/mL. 10 μL of such microbial suspension was inoculated in each well of the plate, resulting in a final bacteria concentration of approximately 5×10^5 CFU/mL. The bacteria were cultured at 37° C. for 24 h and their growth were observed by reading the optical density (OD) at 600 nm. The MIC was determined as the treatment concentration at which no microbial growth was observed. Broth containing microbial cells alone was used as a positive control and broth without bacteria inoculation was used as a negative control. Each test was carried out in 3 replicates.

[5] = tested on: S. aureus (MRSA ATCC33591); test: MIC, broth microdilution; assay type: cell-based; details: 24 h, no pH given
Description: as §1, §2

[6] = tested on: E. coli (DH5 alpha); test: MIC, broth microdilution; assay type: cell-based; details: 24 h, no pH given
Description: as §1, §2

[7] = tested on: M. smegmatis (MC^2 155); test: MIC, broth microdilution; assay type: cell-based; details: 24 h, no pH given
Description: as §1, §2

[8] = tested on: E. coli (ATCC 25922); test: MIC, broth microdilution; assay type: cell-based; details: 24 h, no pH given
Description: as §1, §2

[9] = tested on: S. aureus (Newman); test: MIC, broth microdilution; assay type: cell-based; details: 24 h, no pH given
Description: as §1, §2

[10] = tested on: E. coli ATCC 25922; test: Live/Dead bacterial staining assay (AO/EB); assay type: cell-based; details: 0.5 h and 3 h
Description: Live/Dead bacterial staining assay. Exponentially growing bacteria (E. coli ATCC 25922) were collected by centrifugation at 8000 rpm for 5 min, washed with saline and diluted to OD 600 value of 0.5. The bacterial suspensions were incubated with different treatments at 37° C. for 0.5 h and 3 h, and then washed with saline and stained by acridine orange (10 μg/mL) and ethidium bromide (EB, […]) solution for 15 min. Afterward, the bacteria were collected via centrifugation, washed with saline for 2 times, resuspended in 70% glycerol and spread on glass slides. The live/dead bacteria were observed by a confocal laser scanning microscope (CLSM).

[11] = tested on: P. aeruginosa in Raw 264.7 macrophage; test: Antibacterial activity for intracellular infection; assay type: cell-based; details: Raw 264.7 infected with P. aeruginosa, pH 7.4 and 6.0, 1 day
Description: Antibacterial activity for intracellular infection. The antibacterial activity for intracellular infection was tested following the previous report. Briefly, macrophage Raw 264.7 cells were seeded in 96-well plate at a density of 1×10^4 cell/swell overnight and infected with MRSA or P. aeruginosa at a ratio of 10-20 bacteria per macrophage in FBS free RPMI 1640 medium. After 3 h incubation, the cells were washed and cultured in 1640 medium containing 10% FBS and 50 μg/mL gentamycin for one day to prevent the growth of extracellular bacteria. Then the macrophages were treated with free streptomycin or PDC for another day and lysed with Milli-Q water supplemented with 0.1% Triton-X. The cell lysates were serially diluted and the CFU in each well was determined by plating on MHB agar plates.

[12] = tested on: E. coli ATCC 25922; test: Evaluation of antibiotic resistance development (serial passaging); assay type: cell-based; details: sub-lethal dose (0.5 MIC)
Description: Evaluation of antibiotic resistance development. E. coli ATCC 25922 was employed to study the drug resistance development under sublethal dose treatments of free streptomycin, cationic polymer or the PDC. During a serial of passages, the MIC of each treatment was measured by the broth microdilution method as described above, and the bacteria were exposed to ½MIC at that particular passage. MIC for each passage was recorded and normalized to that of the first passage to determine the drug resistance enhancement.

[13] = tested on: MRSA biofilm; test: Biofilm inhibition assay (crystal violet); assay type: cell-based, S. aureus; details: 512 μg/mL free streptomycin, 24 h
Description: (§3) Biofilm inhibition assays. Exponentially growing bacteria were inoculated into 96 well plates (1×10^4 cell/well) containing MHB broth with 2% (v/w) glucose, incubated under stationary conditions at 37° C. for one day. After biofilm formation, the media was discarded and the plates were washed with PBS to remove the planktonic bacteria. Fresh NMB broth containing serially diluted free streptomycin or PDC were added to the plates and incubated at 37° C. for another 24 h. The media in each well was then removed, and the plates were washed carefully with PBS for 1 time. The biofilm in each well was fixed with 95% ethanol for 15 min and stained with 0.1% crystal violet for 15 min. After washing with Milli-Q water for three times, 33% v/v acetic acid (100 μL/well) was added to solubilize the crystal violet staining. OD 560 in each well was read to determine the biofilm formation. The biofilm formed as described above was also stained with acridine orange and Cy5 labeled PDC, and monitored by CLSM to observe the PDC penetration.

[14] = tested on: P. aeruginosa biofilm; test: Biofilm inhibition assay (crystal violet); assay type: cell-based; details: 256 μg/mL streptomycin
Description: as §3

[15] = tested on: E. coli biofilm; test: Biofilm inhibition assay (crystal violet); assay type: cell-based; details: 512 μg/mL free streptomycin, 24 h
Description: as §3

[16] = tested on: P. aeruginosa ATCC 27853; test: Mouse lung infection model; assay type: in vivo, ICR mice; details: 2 i.v. injections (1 h and 8 h after the infection)
Description: Mouse lung infection model. […] In another experiment of monitoring the mice survival for the lung infection model, the P. aeruginosa infected mice were given 2 treatments (1 h and 8 h after the infection) and their survival was observed using Kaplan-Meier curves (n=5).

**Q.** How did the “hemolytic activity, in words” value [1] turn out when “Hex-Cys-Cys-DET-DMA [Neutralized polymer]” was run?
**A.** Its value is “did not show any hemolytic activity”.

**Q.** For “Hex-Cys-Cys-DET-strep [Positively-charged PDC]”, which “effect of pH (6.0 vs 7.4) on MIC, in words” value [2] is on record?
**A.** Its value is “MICs were unaffected by pH variation”.

**Q.** And the “HEK293 IC50” value [3]?
**A.** The value was over 2000 mg/L.

**Q.** And the “MIC P. aeruginosa (ATCC 27853)” value [4]?
**A.** The value was 20 mg/L.

**Q.** What about the “MIC S. aureus (MRSA ATCC33591)” value [5] of the same compound?
**A.** The value was 20 mg/L.

**Q.** And the “MIC E. coli (DH5 alpha)” value [6]?
**A.** Its value is 20 mg/L.

**Q.** What about the “MIC M. smegmatis (MC^2 155)” value [7] of the same compound?
**A.** Its value is 1.25 mg/L.

**Q.** And the “MIC E. coli (ATCC 25922)” value [8]?
**A.** The value was 20 mg/L.

**Q.** And the “MIC S. aureus (Newman)” value [9]?
**A.** Its value is 10 mg/L.

**Q.** How did the “hemolytic activity, in words” value [1] turn out when “Hex-Cys-Cys-DET2 polymer [Positively-charged polymer]” was run?
**A.** Its value is “only induced hemolysis at a high level of 10 mg/mL”.

**Q.** Which “bactericidal effect / EB staining, in words” value [10] does the source give for `[H]/N=C(/N)N[C@H]1[C@H](O)[C@@H](O)[C@H](O[C@@H]2O[C@@H](C)[C@](O)(C=O)[C@H]2O[C@@H]2O[C@@H](CO)[C@H](O)[C@@H](O)[C@@H]2NC)[C@@H](N/C(N)=N\[H])[C@@H]1O` [Streptomycin, streptomycin, reference compound] here?
**A.** Its value is “little EB infiltration at 3 h”.

**Q.** What about the “antibacterial efficacy on intracellular bacteria (CFU), in words” value [11] of the same compound?
**A.** Its value is “did not show much therapeutic efficacy”.

**Q.** And the MIC ([4]; Pseudomonas aeruginosa, ATCC27853)?
**A.** Its MIC is 16 mg/L (≈ 27.5 µM).

**Q.** What about the MIC ([5]; Staphylococcus aureus) of the same compound?
**A.** The MIC was 16 mg/L (≈ 27.5 µM).

**Q.** What about the MIC ([6]; Escherichia coli) of the same compound?
**A.** Its MIC is 8 mg/L (≈ 13.8 µM).

**Q.** And the MIC ([7]; Mycolicibacterium smegmatis, MC^2155)?
**A.** The MIC was 0.5 mg/L (≈ 0.86 µM).

**Q.** What about the MIC ([8]; Escherichia coli, ATCC25922) of the same compound?
**A.** The MIC was 8 mg/L (≈ 13.8 µM).

**Q.** What about the MIC ([9]; Staphylococcus aureus, NEWMAN) of the same compound?
**A.** The MIC was 16 mg/L (≈ 27.5 µM).

**Q.** And the “increase in MIC after 20 passages” value [12]?
**A.** Its value is 10 fold.

**Q.** What about the biofilm remaining [13] of the same compound?
**A.** Its biofilm remaining is “more than 50%”.

**Q.** And the “biofilm reduced / removed” value [14]?
**A.** The value was 75%.

**Q.** What about the biofilm remaining [15] of the same compound?
**A.** Its biofilm remaining is “more than 50%”.

**Q.** And the “mice rescued (survival)” value [16]?
**A.** Its value is 40%.
